Assay results: patent publication EP0231151A2, “Immunosuppressant agents” (priority 1986, dated 1987)

What was measured:
[1] = target: 5-HT sensitive adenylate cyclase; assay: Activation of 5-HT sensitive adenylate cyclase of the liver fluke (method of Markstein); assay type: biochemical; settings: adenylate cyclase stimulated by serotonin
Source text: A group of compounds comprises compounds which are D₂ agonists without any antagonistic activity. Another group of compounds includes those compounds which are serotonin agonists, e.g. as indicated in standard in vitro binding tests and by activation of 5-HT sensitive adenylate cyclase of the liver fluke according to the method of R.Markstein, Neurochemical effects of some ergot derivatives: A basis for their antiparkinson actions. J.Neural transm 51:39, (1981).
Examples of such compounds include compound C and pergolide. Compound C, pergolide and 5-HT have efficacies of 90,80 and 100 respectively and pD₂ [log EC₅₀] of 6.9, 6.9 and 7.7 respectively in this test on adenylate cyclase stimulated by serotonin.

[2] = tested on: basal serum prolactin levels; assay: Lowering basal serum prolactin levels in the male rat (prolactin secretion inhibition); assay type: in vivo; settings: Rattus norvegicus, 4 h, read-out: ID50 after 4 hours
Source text: Many of the above mentioned compounds are published as prolactin secretion inhibitors, some of which are extremely potent and have long lasting activity. The potency of the compounds as prolactin secretion inhibitors can be determined in standard tests, e.g. by lowering basal serum prolactin levels in the male rat.
Results with representative compounds include:-

[3] = tested on: adjuvant arthritis; assay: Freund's adjuvant arthritis in the rat, hind limb thickness; assay type: in vivo; settings: 0.1 mg/kg/day s.c. osmotic pump
Experimental: One test model is a rodent model of developing autoimmune adjuvant arthritis. An inhibition of the development of adjuvant arthritis is observed.
In one variante, Myobacterium Butyricum purchased from Difco Laboratories, Detroit, Michigan, was prepared in an emulsion with paraffin subliquidium PHHVI (Siegried Zofingen, Switzerland) at a concentration of 6 mg/ml. During ether anaesthesia a volume of 0.1 ml of this emulsion was injected with a 21 g 1-1/2 inch needle intracutaneously at the base of the tail of male Sprague-Dawley rats (ca 150-175 g). Arthritis occurred in 95% to 100% of the hind legs in the positive control animals. The hind limb (mid-tibial region) thickness was measured with a linear guage (Mitutoyo) coupled to an electronic digital readout (Mitutoyo).
100% of a control group developed adjuvant arthritis. The compounds of the invention are administered by means of a sub-cutaneously sustained osmotic pump, over 7 days or 14 days to groups of 5 animals. Progression of the arthritis and the inhibiting effect of a representative compound, compound B, at 0.1 mg/kg/day are as follows:-

[4] = No toxic effect level (NTEL) / tolerability, repeated oral dosing in dogs; settings: dog, in vivo, no toxic effect level, 26 weeks, p.o.
Source text: (§1) Toxicity data for some of the comounds of the invention have been published. Such data may be determined by routine experimentation. TOXICITY DATA for representative compounds NTEL = No toxic effect level.

[5] = Acute toxicity (LD50) in the mouse; settings: in vivo
Source text: as §1

[6] = No toxic effect level (NTEL), repeated oral dosing in rats; settings: rat, in vivo, 26 weeks, p.o.
Source text: as §1

SMILES: NCCc1c[nH]c2ccc(O)cc12 [Compound 5-HT]
- pD₂ [log EC₅₀] [1]: 7.7
- efficacies ([1]; 5-HT = 100): 100

SMILES: CN1C[C@@H](NS(=O)(=O)N(C)C)C[C@@H]2c3cccc4c3c(cn4C)C[C@H]21 [Compound B, 1,6-dimethyl-8α-(N,N-dimethylsulphamoylamino)-ergoline-I]
- ED50 [2]: 0.003 mg/kg
- Hind Limb Thickness (mm) ([3]; Day 0, 7 days dosing): 6.1 mm
- Hind Limb Thickness (mm) ([3]; Day 0, 14 days dosing): 6.0 mm
- Hind Limb Thickness (mm) ([3]; Day 3, 7 days dosing): 6.2 mm
- Hind Limb Thickness (mm) ([3]; Day 3, 14 days dosing): 6.2 mm
- Hind Limb Thickness (mm) ([3]; Day 6, 7 days dosing): 6.2 mm
- Hind Limb Thickness (mm) ([3]; Day 6, 14 days dosing): 6.2 mm
- Hind Limb Thickness (mm) ([3]; Day 9, 7 days dosing): 6.5 mm
- Hind Limb Thickness (mm) ([3]; Day 9, 14 days dosing): 6.7 mm
- Hind Limb Thickness (mm) ([3]; Day 12, 7 days dosing): 6.9 mm
- Hind Limb Thickness (mm) ([3]; Day 12, 14 days dosing): 7.7 mm
- Hind Limb Thickness (mm) ([3]; Day 15, 7 days dosing): 7.6 mm
- Hind Limb Thickness (mm) ([3]; Day 15, 14 days dosing): 7.8 mm
- Hind Limb Thickness (mm) ([3]; Day 18, 7 days dosing): 7.9 mm
- Hind Limb Thickness (mm) ([3]; Day 18, 14 days dosing): 7.9 mm
- Hind Limb Thickness (mm) ([3]; Day 21, 7 days dosing): 8.2 mm
- Hind Limb Thickness (mm) ([3]; Day 21, 14 days dosing): 8.2 mm

SMILES: CCCN1C[C@H](CSC)C[C@@H]2c3cccc4[nH]cc(c34)C[C@H]21 [pergolide, 6-n-propyl-8α-methylmercaptomethyl-ergoline-I]
- pD₂ [log EC₅₀] [1]: 6.9

SMILES: CCN(CC)S(=O)(=O)N[C@H]1C[C@@H]2c3cccc4c3c(cn4CC)C[C@H]2N(C)C1 [Compound D, N,N-diethyl-Nʹ-[(8α)-1-ethyl-6-methyl-ergolin-8-yl]-sulfamide]
- NOAEL at 4368 h [4]: 0.3 mg/kg/day
- LD50 at 168 h ([5]; iv, over 7 days, read-out: acute LD₅₀ (mouse) i.v.): 44 mg/kg
- LD50 at 336 h ([5]; po, over 14 days, read-out: acute LD₅₀ (mouse) p.o.): 992 mg/kg
- NOAEL at 4368 h [6]: 5 to 17 mg/kg/day
